Source: patent publication US9006278B2, “Controlled release systems of pluribioactive antifungal drugs and applications thereof” (Poly-Med, Inc., priority 2010, dated 2015)

Assays:
Format in all cases: cell-based
[1] = test system: OVCAR3 ovarian cancer cells; assay: Cell viability, CellTiter 96 AQueous One (OVCAR3); details: Homo sapiens, OVCAR-3, 48 h, 2 days
Protocol: (§1) To examine the effect of miconazole and ketoconazole on cancer cells (SKOV3, OVCAR3, and MCF7) and vascular cells (human aortic smooth muscle and umbilical vein endothelium), each cell type was seeded in separate 24-well plates at a density of approximately 50,000 to 100,000 cells/cm^2. After incubation under standard cell culture conditions (that is, a 37° C., humidified, 5% CO2 environment) for approximately 24 hours, media was aspirated from each well, and replaced with the appropriate treatments. Miconazole or ketoconazole was dissolved in ethanol to create a stock solution. […] The same volume of ethanol was added to control wells, but no drug was present. Cells were further incubated for 2 days. At that time, cell viability was measured using a commercially available kit, according to manufacturer instructions (CellTiter 96® AQueous One Solution Cell Proliferation Assay, Promega). All samples were prepared in triplicate. Percent inhibition was then calculated using the absorbance values.

[2] = test system: umbilical vein endothelium cells; assay: Cell viability, CellTiter 96 AQueous One (endothelium); details: Homo sapiens, 48 h, 2 days, read-out: % Inhibition Endothelial
Protocol: as §1

[3] = test system: Candida albicans; assay: Broth culture growth inhibition, absorbance at 600 nm (Candida albicans); details: overnight (approx. 16 hours), read-out: % Inhibition C. albicans
Protocol: (§2) Bacterial and fungal cultures (Staphylococcus aureus and Candida albicans) were maintained according to manufacturer (ATCC) instructions. Broth was inoculated according to 0.5 McFarland standard (0.05 absorbance reading). Miconazole or ketoconazole was dissolved in ethanol to create a stock solution. Cultures were incubated overnight (approximately 16 hours), at which time relative absorbance was recorded for each sample using a spectrophotometer (600 nm wavelength). Absorbance values were then used to calculate percent inhibition.

[4] = test system: human aortic smooth muscle cells; assay: Cell viability, CellTiter 96 AQueous One (smooth muscle); details: 48 h, 2 days
Protocol: as §1

[5] = test system: SKOV3 ovarian cancer cells; assay: Cell viability, CellTiter 96 AQueous One (SKOV3); details: Homo sapiens, SK-OV-3, 48 h, 2 days
Protocol: as §1

[6] = test system: MCF7 breast cancer cells; assay: Cell viability, CellTiter 96 AQueous One (MCF7); details: Homo sapiens, MCF7, 48 h, 2 days
Protocol: as §1

[7] = test system: Staphylococcus aureus; assay: Broth culture growth inhibition, absorbance at 600 nm (Staphylococcus aureus); details: overnight (approx. 16 hours), read-out: % Inhibition S. aureus
Protocol: as §2

CC(=O)N1CCN(c2ccc(OCC3COC(Cn4ccnc4)(c4ccc(Cl)cc4Cl)O3)cc2)CC1 (stereo not shown) [Ketoconazole, ketoconazole]
inhibition at 40 µg/mL ([1]; 40 μg/mL): 0%
inhibition at 80 µg/mL ([1]; 80 μg/mL): 57%
inhibition at 40 µg/mL ([2]; 40 μg/mL): 16%
inhibition at 80 µg/mL ([2]; 80 μg/mL): 38%
inhibition at 40 µg/mL ([3]; 40 μg/mL): 93.8%
inhibition at 80 µg/mL ([3]; 80 μg/mL): 98.6%
inhibition at 40 µg/mL ([4]; 40 μg/mL): 31%
inhibition at 80 µg/mL ([4]; 80 μg/mL): 68%
inhibition at 40 µg/mL ([5]; 40 μg/mL): 0%
inhibition at 80 µg/mL ([5]; 80 μg/mL): 51%
inhibition at 40 µg/mL ([6]; 40 μg/mL): 58%
inhibition at 80 µg/mL ([6]; 80 μg/mL): 50%
inhibition at 40 µg/mL ([7]; 40 μg/mL): 32.7%
inhibition at 80 µg/mL ([7]; 80 μg/mL): 67.6%

Clc1ccc(COC(Cn2ccnc2)c2ccc(Cl)cc2Cl)c(Cl)c1 (stereo not shown) [Miconazole, miconazole]
inhibition at 20 µg/mL ([1]; 20 μg/mL): 19%
inhibition at 60 µg/mL ([1]; 60 μg/mL): 57%
inhibition at 20 µg/mL ([2]; 20 μg/mL): 18%
inhibition at 60 µg/mL ([2]; 60 μg/mL): 58%
inhibition at 20 µg/mL ([3]; 20 μg/mL): 98.3%
inhibition at 60 µg/mL ([3]; 60 μg/mL): 73.2%
inhibition at 20 µg/mL ([4]; 20 μg/mL): 58%
inhibition at 60 µg/mL ([4]; 60 μg/mL): 84%
inhibition at 20 µg/mL ([5]; 20 μg/mL): 13%
inhibition at 60 µg/mL ([5]; 60 μg/mL): 61%
inhibition at 20 µg/mL ([6]; 20 μg/mL): 19%
inhibition at 60 µg/mL ([6]; 60 μg/mL): 55%
inhibition at 20 µg/mL ([7]; 20 μg/mL): 76.7%
inhibition at 60 µg/mL ([7]; 60 μg/mL): 65%
